{
  "source": "paper PMC3701070",
  "about": "(PLoS ONE, 2013)",
  "assay_in_all_cases": "Cell growth assay",
  "format_in_all_cases": "cell-based",
  "key": {"J82": {"test_system": "J82", "conditions": "Homo sapiens, 72 h; J82, RAF WT, RAS WT, 3-day; read-out: gIC50", "outline": "(§1)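 CellTiter-Glo luminescence; reads at t = 0 and 72 h. gIC50 reported.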"}, "HT": {"test_system": "HT", "conditions": "Homo sapiens, 72 h, RAF WT, RAS WT, 3-day, read-out: gIC50", "outline": "as §1"}, "MCF-7": {"test_system": "MCF-7", "conditions": "Homo sapiens, MCF7, 72 h; MCF-7, RAF WT, RAS WT, 3-day; read-out: gIC50", "outline": "as §1"}, "RD-ES": {"test_system": "RD-ES", "conditions": "Homo sapiens, 72 h, RAF WT, RAS WT, 3-day, read-out: gIC50", "outline": "as §1"}, "HMCB": {"test_system": "HMCB", "conditions": "Homo sapiens, 72 h, RAF WT, RAS WT, 3-day, read-out: gIC50", "outline": "as §1"}, "DOTC 24510": {"test_system": "DOTC 24510", "conditions": "Homo sapiens, DoTc2-4510, 72 h; DOTC 24510, RAF WT, RAS WT, 3-day; read-out: gIC50", "outline": "as §1"}, "TE381.T": {"test_system": "TE381.T", "conditions": "Homo sapiens, TE 381.T, 72 h, RAF WT, RAS WT, 3-day, read-out: gIC50", "outline": "as §1"}, "647-V": {"test_system": "647-V", "conditions": "Homo sapiens, 72 h, RAF WT, RAS WT, 3-day, read-out: gIC50", "outline": "as §1"}, "GCT": {"test_system": "GCT", "conditions": "Homo sapiens, 72 h, BRAF(V600E), RAS WT, 3-day, read-out: gIC50", "outline": "as §1"}, "T47D": {"test_system": "T47D", "conditions": "Homo sapiens, 72 h, RAF WT, RAS WT, 3-day, read-out: gIC50", "outline": "as §1"}, "SK-N-F1": {"test_system": "SK-N-F1", "conditions": "Homo sapiens, 72 h; SK-N-F1, RAF WT, RAS WT, 3-day; read-out: gIC50", "outline": "as §1"}, "UACC-812": {"test_system": "UACC-812", "conditions": "Homo sapiens, 72 h; UACC-812, RAF WT, RAS WT, 3-day; read-out: gIC50", "outline": "as §1"}, "SCLC-3": {"test_system": "SCLC-3", "conditions": "Homo sapiens, 72 h; SCLC-3, RAF WT, RAS WT, 3-day; read-out: gIC50", "outline": "as §1"}, "GDM-1": {"test_system": "GDM-1", "conditions": "Homo sapiens, 72 h; GDM-1, RAF WT, RAS WT, 3-day; read-out: gIC50", "outline": "as §1"}, "NCI-H69": {"test_system": "NCI-H69", "conditions": "Homo sapiens, 72 h; NCI-H69, RAF WT, RAS WT, 3-day; read-out: gIC50", "outline": "as §1"}, "SaOS2": {"test_system": "SaOS2", "conditions": "Homo sapiens, SAOS-2, 72 h; SaOS2, RAF WT, RAS WT, 3-day; read-out: gIC50", "outline": "as §1"}, "T-84": {"test_system": "T-84", "conditions": "Homo sapiens, T84, 72 h; T-84, RAF WT, KRAS(G13D), 3-day; read-out: gIC50", "outline": "as §1"}, "NCI-ADR/RES": {"test_system": "NCI-ADR/RES", "conditions": "Homo sapiens, 72 h, RAF WT, RAS WT, 3-day, read-out: gIC50", "outline": "as §1"}, "SNU-398": {"test_system": "SNU-398", "conditions": "Homo sapiens, 72 h; SNU-398, RAF WT, RAS WT, 3-day; read-out: gIC50", "outline": "as §1"}, "SW480": {"test_system": "SW480", "conditions": "Homo sapiens, 72 h; SW480, RAF WT, KRAS(G12V), 3-day; read-out: gIC50", "outline": "as §1"}, "SW684": {"test_system": "SW684", "conditions": "Homo sapiens, 72 h; SW684, RAF WT, RAS WT, 3-day; read-out: gIC50", "outline": "as §1"}, "A101D": {"test_system": "A101D", "conditions": "Homo sapiens, 72 h, BRAF(V600E), RAS WT, 3-day, read-out: gIC50", "outline": "as §1"}, "MC/CAR": {"test_system": "MC/CAR", "conditions": "Homo sapiens, 72 h, RAF WT, RAS WT, 3-day, read-out: gIC50", "outline": "as §1"}, "SK-MES-1": {"test_system": "SK-MES-1", "conditions": "Homo sapiens, 72 h; SK-MES-1, RAF WT, RAS WT, 3-day; read-out: gIC50", "outline": "as §1"}, "SK-N-AS": {"test_system": "SK-N-AS", "conditions": "Homo sapiens, 72 h, RAF WT, NRAS(Q61K), 3-day, read-out: gIC50", "outline": "as §1"}, "HCC-1954": {"test_system": "HCC-1954", "conditions": "Homo sapiens, HCC1954, 72 h; HCC-1954, RAF WT, RAS WT, 3-day; read-out: gIC50", "outline": "as §1"}, "EFM-19": {"test_system": "EFM-19", "conditions": "Homo sapiens, 72 h; EFM-19, RAF WT, RAS WT, 3-day; read-out: gIC50", "outline": "as §1"}, "C-4 I": {"test_system": "C-4 I", "conditions": "Homo sapiens, 72 h, RAF WT, RAS WT, 3-day, read-out: gIC50", "outline": "as §1"}, "NCI-H716": {"test_system": "NCI-H716", "conditions": "Homo sapiens, 72 h; NCI-H716, RAF WT, RAS WT, 3-day; read-out: gIC50", "outline": "as §1"}, "Colo 205": {"test_system": "Colo 205", "conditions": "Homo sapiens, 72 h; Colo 205, BRAF(V600E), RAS WT, 3-day; read-out: gIC50", "outline": "as §1"}, "Calu-3": {"test_system": "Calu-3", "conditions": "Homo sapiens, 72 h; Calu-3, RAF WT, RAS WT, 3-day; read-out: gIC50", "outline": "as §1"}, "U2OS": {"test_system": "U2OS", "conditions": "Homo sapiens, 72 h, RAF WT, RAS WT, 3-day, read-out: gIC50", "outline": "as §1"}, "NCI-H520": {"test_system": "NCI-H520", "conditions": "Homo sapiens, 72 h; NCI-H520, RAF WT, RAS WT, 3-day; read-out: gIC50", "outline": "as §1"}, "COR-L23": {"test_system": "COR-L23", "conditions": "Homo sapiens, 72 h; COR-L23, RAF WT, RAS WT, 3-day; read-out: gIC50", "outline": "as §1"}, "CGTHW1": {"test_system": "CGTHW1", "conditions": "Homo sapiens, CGTH-W-1, 72 h; CGTHW1, RAF WT, RAS WT, 3-day; read-out: gIC50", "outline": "as §1"}},
  "data": [
    {"smiles": "CC(C)(C)c1nc(-c2cccc(NS(=O)(=O)c3c(F)cccc3F)c2F)c(-c2ccnc(N)n2)s1", "note": "[dabrafenib]", "values": [
      {"measurement": "IC50", "setting": "J82", "value": "> 10", "unit": "µM"},
      {"measurement": "IC50", "setting": "HT", "value": "> 10", "unit": "µM"},
      {"measurement": "IC50", "setting": "MCF-7", "value": "> 10", "unit": "µM"},
      {"measurement": "IC50", "setting": "RD-ES", "value": "> 10", "unit": "µM"},
      {"measurement": "IC50", "setting": "HMCB", "value": "> 10", "unit": "µM"},
      {"measurement": "IC50", "setting": "DOTC 24510", "value": "> 10", "unit": "µM"},
      {"measurement": "IC50", "setting": "TE381.T", "value": "> 10", "unit": "µM"},
      {"measurement": "IC50", "setting": "647-V", "value": "> 10", "unit": "µM"},
      {"measurement": "IC50", "setting": "GCT", "value": "> 10", "unit": "µM"},
      {"measurement": "IC50", "setting": "T47D", "value": "> 10", "unit": "µM"},
      {"measurement": "IC50", "setting": "SK-N-F1", "value": "> 10", "unit": "µM"},
      {"measurement": "IC50", "setting": "UACC-812", "value": "> 10", "unit": "µM"},
      {"measurement": "IC50", "setting": "SCLC-3", "value": "> 10", "unit": "µM"},
      {"measurement": "IC50", "setting": "GDM-1", "value": 2, "unit": "µM"},
      {"measurement": "IC50", "setting": "NCI-H69", "value": "> 10", "unit": "µM"},
      {"measurement": "IC50", "setting": "SaOS2", "value": "> 10", "unit": "µM"},
      {"measurement": "IC50", "setting": "T-84", "value": "> 10", "unit": "µM"},
      {"measurement": "IC50", "setting": "NCI-ADR/RES", "value": "> 10", "unit": "µM"},
      {"measurement": "IC50", "setting": "SNU-398", "value": "> 10", "unit": "µM"},
      {"measurement": "IC50", "setting": "SW480", "value": "> 10", "unit": "µM"},
      {"measurement": "IC50", "setting": "SW684", "value": "> 10", "unit": "µM"},
      {"measurement": "IC50", "setting": "A101D", "value": 0.009, "unit": "µM"},
      {"measurement": "IC50", "setting": "MC/CAR", "value": 1, "unit": "µM"},
      {"measurement": "IC50", "setting": "SK-MES-1", "value": 0.329, "unit": "µM"},
      {"measurement": "IC50", "setting": "SK-N-AS", "value": "> 10", "unit": "µM"},
      {"measurement": "IC50", "setting": "HCC-1954", "value": "> 10", "unit": "µM"},
      {"measurement": "IC50", "setting": "EFM-19", "value": "> 10", "unit": "µM"},
      {"measurement": "IC50", "setting": "C-4 I", "value": "> 10", "unit": "µM"},
      {"measurement": "IC50", "setting": "NCI-H716", "value": "> 10", "unit": "µM"},
      {"measurement": "IC50", "setting": "Colo 205", "value": 0.007, "unit": "µM"},
      {"measurement": "IC50", "setting": "Calu-3", "value": "> 10", "unit": "µM"},
      {"measurement": "IC50", "setting": "U2OS", "value": "> 10", "unit": "µM"},
      {"measurement": "IC50", "setting": "NCI-H520", "value": "> 10", "unit": "µM"},
      {"measurement": "IC50", "setting": "COR-L23", "value": "> 10", "unit": "µM"},
      {"measurement": "IC50", "setting": "CGTHW1", "value": "> 10", "unit": "µM"}
    ]}
  ]
}
